Experimental data: ChEMBL document CHEMBL4706519, “Evaluation of N-phenyl-2-aminothiazoles for treatment of multi-drug resistant and intracellular Staphylococcus aureus infections” (Eur J Med Chem, 2020)
In brackets after ≈: the same amount, converted by molar mass.

Assays:
[1] = test system: Staphylococcus aureus; assay: Antibacterial activity against methicillin-resistant Staphylococcus aureus USA300 NRS384 assessed as inhibition of bacterial growth measured after 18 to 20 hrs by broth microdilution method; format: functional; details: time 18-20 hrs
[2] = test system: Escherichia coli; assay: Antibacterial activity against Escherichia coli JW55031 harboring toIC efflux mutant assessed as inhibition of bacterial growth measured after 18 to 20 hrs by broth microdilution method; format: functional; details: time 18-20 hrs
[3] = test system: Escherichia coli; assay: Antibacterial activity against wild type Escherichia coli BW25113 assessed as inhibition of bacterial growth measured after 18 to 20 hrs by broth microdilution method; format: functional; details: time 18-20 hrs
[4] = test system: Streptococcus pneumoniae; assay: Ratio of MBC to MIC for cephalosporin-resistant Streptococcus pneumoniae ATCC 51916 assessed as inhibition of bacterial growth measured after 18 to 20 hrs by CLSI protocol based broth microdilution method; format: functional; details: time 18-20 hrs
[5] = test system: Listeria monocytogenes; assay: Ratio of MBC to MIC for Listeria monocytogenes ATCC 19111 assessed as inhibition of bacterial growth measured after 18 to 20 hrs by CLSI protocol based broth microdilution method; format: functional; details: time 18-20 hrs
[6] = test system: Enterococcus faecium; assay: Ratio of MBC to MIC for vancomycin-resistant Enterococcus faecium ATCC 700221 assessed as inhibition of bacterial growth measured after 18 to 20 hrs by CLSI protocol based broth microdilution method; format: functional; details: time 18-20 hrs
[7] = test system: Enterococcus faecalis; assay: Ratio of MBC to MIC for vancomycin-resistant Enterococcus faecalis ATCC 51299 assessed as inhibition of bacterial growth measured after 18 to 20 hrs by CLSI protocol based broth microdilution method; format: functional; details: time 18-20 hrs
[8] = test system: Staphylococcus aureus; assay: Ratio of MBC to MIC against methicillin-sensitive Staphylococcus aureus ATCC 6538 assessed as inhibition of bacterial growth measured after 18 to 20 hrs by CLSI broth microdilution method; format: functional; details: time 18-20 hrs
[9] = test system: Staphylococcus aureus; assay: Antibacterial activity against vancomycin-resistant Staphylococcus aureus 10 assessed as inhibition of bacterial growth measured after 18 to 20 hrs by CLSI protocol based broth microdilution method; format: functional; details: time 18-20 hrs
[10] = test system: Staphylococcus epidermidis; assay: Ratio of MBC to MIC for methicillin-resistant Staphylococcus epidermidis NRS101 assessed as inhibition of bacterial growth measured after 18 to 20 hrs by CLSI protocol based broth microdilution method; format: functional; details: time 18-20 hrs
[11] = test system: Staphylococcus aureus; assay: Antibacterial activity against vancomycin-resistant Staphylococcus aureus 12 assessed as inhibition of bacterial growth measured after 18 to 20 hrs by CLSI protocol based broth microdilution method; format: functional; details: time 18-20 hrs
[12] = test system: Staphylococcus epidermidis; assay: Antibacterial activity against methicillin-resistant Staphylococcus epidermidis NRS101 assessed as inhibition of bacterial growth measured after 18 to 20 hrs by CLSI protocol based broth microdilution method; format: functional; details: time 18-20 hrs
[13] = test system: Enterococcus faecium; assay: Antibacterial activity against vancomycin-resistant Enterococcus faecium ATCC 700221 assessed as inhibition of bacterial growth measured after 18 to 20 hrs by CLSI protocol based broth microdilution method; format: functional; details: time 18-20 hrs
[14] = test system: Listeria monocytogenes; assay: Antibacterial activity against Listeria monocytogenes ATCC 19111 assessed as inhibition of bacterial growth measured after 18 to 20 hrs by CLSI protocol based broth microdilution method; format: functional; details: time 18-20 hrs
[15] = test system: Streptococcus pneumoniae; assay: Antibacterial activity against cephalosporin-resistant Streptococcus pneumoniae ATCC 51916 assessed as inhibition of bacterial growth measured after 18 to 20 hrs by CLSI protocol based broth microdilution method; format: functional; details: time 18-20 hrs
[16] = test system: Streptococcus pneumoniae; assay: Antibacterial activity against methicillin-resistant Streptococcus pneumoniae ATCC 700677 assessed as inhibition of bacterial growth measured after 18 to 20 hrs by CLSI protocol based broth microdilution method; format: functional; details: time 18-20 hrs
[17] = test system: Staphylococcus aureus; assay: Ratio of MBC to MIC against methicillin-sensitive Staphylococcus aureus NRS107 assessed as inhibition of bacterial growth measured after 18 to 20 hrs by CLSI protocol based broth microdilution method; format: functional; details: time 18-20 hrs
[18] = test system: Staphylococcus aureus; assay: Bactericidal activity against methicillin-resistant Staphylococcus aureus USA400 NRS123 assessed as log reduction in viable bacteria count at 5 times MIC incubated for 2 hrs in soy broth followed by incubation for 18 to 20 hrs on agar plate by time kill assay; format: functional; details: time 20-22 hrs
[19] = test system: Staphylococcus aureus; assay: Bactericidal activity against methicillin-resistant Staphylococcus aureus USA400 NRS123 assessed as post-antibiotic effect at 5 times MIC incubated for 2 hrs followed by compound wash-out by viable plate count method; format: functional
[20] = Cytotoxicity against human Caco-2 cells assessed as cell viability at 32 ug/ml incubated for 2 hrs by MTS assay relative to control; format: cell-based; details: at 32 µg/mL, read-out: Activity
[21] = Selectivity index, ratio of maximum non-toxic concentration for human Caco-2 cells to MIC for methicillin-resistant Staphylococcus aureus USA500 NRS385; format: toxicity
[22] = Selectivity index, ratio of maximum non-toxic concentration for human Caco-2 cells to MIC for methicillin-resistant Staphylococcus aureus USA400 NRS123; format: toxicity
[23] = Selectivity index, ratio of maximum non-toxic concentration for human Caco-2 cells to MIC for methicillin-resistant Staphylococcus aureus NRS119; format: toxicity
[24] = Selectivity index, ratio of maximum non-toxic concentration for human Caco-2 cells to MIC for methicillin-resistant Staphylococcus aureus USA300 NRS384; format: toxicity
[25] = Cytotoxicity against mouse J774 cells assessed as cell viability at 16 ug/ml incubated for 2 hrs by MTS assay relative to control; format: cell-based; details: at 16 µg/mL, read-out: Activity
[26] = test system: Staphylococcus aureus; assay: Antibacterial activity against methicillin-resistant Staphylococcus aureus USA400 NRS123 infected in mouse J774 cells assessed as reduction in intracellular bacterial burden at 2 x MIC measured after 24 hrs relative to control; format: functional
[27] = test system: Staphylococcus aureus; assay: Antibacterial activity against methicillin-resistant Staphylococcus aureus USA400 NRS123 infected in mouse J774 cells assessed as reduction in intracellular bacterial burden at 4 x MIC measured after 24 hrs relative to control; format: functional
[28] = test system: Streptococcus pneumoniae; assay: Ratio of MBC to MIC for methicillin-resistant Streptococcus pneumoniae ATCC 700677 assessed as inhibition of bacterial growth measured after 18 to 20 hrs by CLSI protocol based broth microdilution method; format: functional; details: time 18-20 hrs
[29] = test system: Staphylococcus aureus; assay: Bactericidal activity against methicillin-resistant Staphylococcus aureus USA400 NRS123 assessed as eradication of bacterial count at 5 times MIC incubated for 8 hrs in soy broth followed by incubation for 18 to 20 hrs on agar plate by time kill assay; format: functional; details: time 26-28 hrs
[30] = Selectivity index, ratio of maximum non-toxic concentration for human Caco-2 cells to MIC for methicillin-resistant Staphylococcus aureus USA700 NRS386; format: toxicity
[31] = Cytotoxicity against mouse J774 cells assessed as cell viability at 32 ug/ml incubated for 2 hrs by MTS assay; format: cell-based; details: J774 cells, at 32 µg/mL, read-out: Activity
[32] = test system: Staphylococcus aureus; assay: Antibacterial activity against methicillin-resistant Staphylococcus aureus USA400 NRS123 infected in mouse J774 cells assessed as log reduction in intracellular bacterial burden at 2 x MIC measured after 24 hrs; format: functional
[33] = test system: Staphylococcus aureus; assay: Antibacterial activity against methicillin-resistant Staphylococcus aureus USA400 NRS123 infected in mouse J774 cells assessed as log reduction in intracellular bacterial burden at 4 x MIC measured after 24 hrs; format: functional
[34] = test system: Staphylococcus aureus; assay: Ratio of MIC for methicillin-resistant Staphylococcus aureus USA400 NRS123 measured after 5th passage to MIC for methicillin-resistant Staphylococcus aureus USA400 NRS123 measured after 18 to 20 hrs by broth microdilution assay; format: functional
[35] = test system: Staphylococcus aureus; assay: Ratio of MIC for methicillin-resistant Staphylococcus aureus USA400 NRS123 measured after 11th passage to MIC for methicillin-resistant Staphylococcus aureus USA400 NRS123 measured after 18 to 20 hrs by broth microdilution assay; format: functional
[36] = test system: Staphylococcus aureus; assay: microbe, parasite or virus in culture; details: ATCC 6538
[37] = test system: Staphylococcus aureus; assay: microbe, parasite or virus in culture; details: NRS107
[38] = test system: Staphylococcus aureus; assay: microbe, parasite or virus in culture; details: NRS119
[39] = test system: Staphylococcus aureus; assay: microbe, parasite or virus in culture; details: USA400 NRS123
[40] = test system: Staphylococcus aureus; assay: microbe, parasite or virus in culture; details: USA500 NRS385
[41] = test system: Staphylococcus aureus; assay: microbe, parasite or virus in culture; details: USA700 NRS386
[42] = test system: Enterococcus faecalis; assay: microbe, parasite or virus in culture; details: ATCC 51299

SMILES: C/C(=N\NC(=N)N)c1ccc(Nc2nc(-c3ccccc3)cs2)cc1
- MIC [1]: 2 µg/mL (≈ 5.71 µM)
- MIC [2]: 4 µg/mL (≈ 11.4 µM)
- MIC [3]: 8 µg/mL (≈ 22.8 µM)
- Ratio [4]: 1
- Ratio [5]: 1
- Ratio [6]: 1
- Ratio [7]: 1
- Ratio [8]: 1
- MBC [9]: 2 µg/mL (≈ 5.71 µM)
- MIC [9]: 2 µg/mL (≈ 5.71 µM)
- Ratio [10]: 1
- MBC [11]: 4 µg/mL (≈ 11.4 µM)
- MIC [11]: 2 µg/mL (≈ 5.71 µM)
- MBC [12]: 1 µg/mL (≈ 2.85 µM)
- MIC [12]: 1 µg/mL (≈ 2.85 µM)
- MBC [13]: 4 µg/mL (≈ 11.4 µM)
- MIC [13]: 2 µg/mL (≈ 5.71 µM)
- MBC [14]: 4 µg/mL (≈ 11.4 µM)
- MIC [14]: 1 µg/mL (≈ 2.85 µM)
- MBC [15]: 4 µg/mL (≈ 11.4 µM)
- MIC [15]: 2 µg/mL (≈ 5.71 µM)
- MBC [16]: 8 µg/mL (≈ 22.8 µM)
- MIC [16]: 2 µg/mL (≈ 5.71 µM)
- Ratio [17]: 1
- Activity [18]: 3 log10CFU/ml
- PAE [19]: 2 h
- viability at 2 h, 32 ug/ml [20]: 100%
- selectivity ratio [21]: 16
- selectivity ratio [22]: 16
- selectivity ratio [23]: 16
- selectivity ratio [24]: 16
- viability at 2 h, 16 ug/ml [25]: 100%
- inhibition (INH) [26]: 88%
- inhibition (INH) [27]: 93%
- Ratio [28]: 1
- Activity [29]: 100%
- selectivity ratio [30]: 16
- viability at 2 h, 32 ug/ml [31]: 100%
- Activity [32]: 1.07 log10CFU/ml
- Activity [33]: 1.19 log10CFU/ml
- Ratio [34]: 1
- Ratio [35]: 3
- MBC [36]: 2 µg/mL (≈ 5.71 µM)
- MIC [36]: 2 µg/mL (≈ 5.71 µM)
- MBC [37]: 4 µg/mL (≈ 11.4 µM)
- MIC [37]: 1 µg/mL (≈ 2.85 µM)
- MBC [38]: 4 µg/mL (≈ 11.4 µM)
- MIC [38]: 2 µg/mL (≈ 5.71 µM)
- MBC [39]: 2 µg/mL (≈ 5.71 µM)
- MIC [39]: 2 µg/mL (≈ 5.71 µM)
- MBC [40]: 2 µg/mL (≈ 5.71 µM)
- MIC [40]: 2 µg/mL (≈ 5.71 µM)
- MBC [41]: 8 µg/mL (≈ 22.8 µM)
- MIC [41]: 2 µg/mL (≈ 5.71 µM)
- MBC [42]: 4 µg/mL (≈ 11.4 µM)
- MIC [42]: 2 µg/mL (≈ 5.71 µM)
